In PMC11031590, “Narazaciclib, a novel multi-kinase inhibitor with potent activity against CSF1R, FLT3 and CDK6, shows strong anti-AML activity in defined preclinical models” (Scientific Reports, 2024):

Legend:
Ba/F3-FLT3-F691L = Ba/F3-FLT3-F691L proliferation assay; assay type: cell-based, mouse
Method: The recombinant Ba/F3 cell lines overexpressing human CSF1R, or human RBM6-CSF1R, or human ETV6-CSF1R were generated using a retrovirus vector (Kyinno Co., Ltd. Beijing). The recombinant Ba/F3 lines overexpressing human Kras G12C orEGFR-L718Q mutants, and different mutant variants of FLT3 were also similarly created as well. A standard proliferation assay via CTG readout was performed according to the vendor’s instructions (KYinno Biotechnology Co., Ltd. Beijing).

M07E = experiment: AML cell line in vitro proliferation assay; assay type: cell-based
Method: (§1) Narazaciclib was serially diluted with culture medium to 9 final assay concentrations from 0.01 to 100 μM. The assay was performed with both a negative control (vehicle) and a positive control (Cisplatin) in triplicate. The AML cell lines at log-growth phase were cultured in 96-well plates (black transparent flat bottom 96-well plate, Corning, Cat# 3603, FBS, ExCell Bio., Cat# FND500) in the presence of narazaciclib or Cisplatin at various concentrations for 72 h or 120 h (only for AML-193 cell line), followed by CTG readout according to the manufacturer’s instruction (CellTiter-Glo Luminescent Cell Viability Assay, Promega, Cat# G7573). Viability%=Lumdrug-Lummedium control/Lumcell control-Lummedium control×100%. Lumcell control-Lummedium controlas100%,LumMediumcontrolas0%. Proliferationfold increase=D5-LumNone treated-LumMedium control/D2LumNone treated-LumMedium control
(§2) Dose–response curves were fitted by a 4-parameter log-logistic model: Inhibition%=Bottom+Top-Bottom/1+10^logEC50-x∗HillSlope where Top and Bottom are the two asymptotes of the sigmoidal curve, EC50 is the relative IC50, concentration x is in log-10 scale and HillSlope is the slope at the EC50 point on the fitted curve. The fitted area under the curve (AUC) was calculated by: Inhibition%=Bottom+Top-Bottom/1+10^logEC50-x∗HillSlope where a represents the log10-transformed minimal concentration and b represents the log10-transformed maximal concentration. An extremely strong positive correlation between the absolute IC50 and AUC is shown in Supplemental Fig. S5.

TF-1 = experiment: AML cell line in vitro proliferation assay; assay type: cell-based
Method: as §1, §2

PL21 = experiment: AML cell line in vitro proliferation assay; assay type: cell-based
Method: as §1, §2

ML2 = experiment: AML cell line in vitro proliferation assay; assay type: cell-based
Method: as §1, §2

MONOMAC-1 = experiment: AML cell line in vitro proliferation assay; assay type: cell-based
Method: as §1, §2

OCI-M2 = experiment: AML cell line in vitro proliferation assay; assay type: cell-based
Method: as §1, §2

OCI-AML-2 = experiment: AML cell line in vitro proliferation assay; assay type: cell-based
Method: as §1, §2

MV-4–11 = experiment: AML cell line in vitro proliferation assay; assay type: cell-based
Method: as §1, §2

KASUMI-6 = experiment: AML cell line in vitro proliferation assay; assay type: cell-based
Method: as §1, §2

OCI-AML-5 = experiment: AML cell line in vitro proliferation assay; assay type: cell-based
Method: as §1, §2

OCI-AML-3 = experiment: AML cell line in vitro proliferation assay; assay type: cell-based
Method: as §1, §2

UT7 = experiment: AML cell line in vitro proliferation assay; assay type: cell-based
Method: as §1, §2

OCI-M1 = experiment: AML cell line in vitro proliferation assay; assay type: cell-based
Method: as §1, §2

Q: With `CN1CCN(c2ccc(Nc3ncc4cc(C#N)c(=O)n(C5CCCC5)c4n3)cc2)CC1` [Narazaciclib, narazaciclib] as the compound, how does the “% of Ba/F3-FLT3 (IC50)” value (Ba/F3-FLT3-F691L) read?
A: 44.19%

Q: What about the IC50 (Ba/F3-FLT3-F691L; Mus musculus) of the same compound?
A: 133 nM

Q: What about the “Classification by AUC” value (M07E) of the same compound?
A: Intermediate (2.4 < AUC < 2.8, intermediate)

Q: And the IC50 (M07E; M-07e, 72 h, CTG)?
A: 4860 nM

Q: And the AUC (M07E; area under the dose–response curve)?
A: 2.557

Q: What about the IC50 (TF-1; Homo sapiens, TF-1, 72 h, CTG) of the same compound?
A: 50800 nM

Q: And the “Classification by AUC” value (TF-1; TF-1)?
A: Insensitive (AUC ≥ 2.8, insensitive)

Q: And the AUC (TF-1; TF-1, area under the dose–response curve)?
A: 3.502

Q: What about the “Classification by AUC” value (PL21; PL21) of the same compound?
A: Sensitive (AUC ≤ 2.4, sensitive)

Q: And the AUC (PL21; PL21, area under the dose–response curve)?
A: 2.37

Q: And the IC50 (PL21; PL-21, PL21, 72 h, CTG)?
A: 3400 nM

Q: And the IC50 (ML2; Homo sapiens, ML-2, ML2, 72 h, CTG)?
A: 3600 nM

Q: What about the “Classification by AUC” value (ML2; ML2) of the same compound?
A: Intermediate (2.4 < AUC < 2.8, intermediate)

Q: What about the AUC (ML2; ML2, area under the dose–response curve) of the same compound?
A: 2.633

Q: What about the “Classification by AUC” value (MONOMAC-1; MONOMAC-1) of the same compound?
A: Sensitive (AUC ≤ 2.4, sensitive)

Q: What about the AUC (MONOMAC-1; MONOMAC-1, area under the dose–response curve) of the same compound?
A: 1.906

Q: And the IC50 (MONOMAC-1; Mono-Mac-1, MONOMAC-1, 72 h, CTG)?
A: 297 nM

Q: What about the “Classification by AUC” value (OCI-M2; OCI-M2) of the same compound?
A: Insensitive (AUC ≥ 2.8, insensitive)

Q: And the IC50 (OCI-M2; OCI-M2, 72 h, CTG)?
A: > 100000 nM

Q: What about the AUC (OCI-M2; OCI-M2, area under the dose–response curve) of the same compound?
A: 3.46

Q: And the IC50 (OCI-AML-2; Homo sapiens, OCI-AML2, OCI-AML-2, 72 h, CTG)?
A: 1160 nM

Q: What about the “Classification by AUC” value (OCI-AML-2; OCI-AML-2) of the same compound?
A: Sensitive (AUC ≤ 2.4, sensitive)

Q: What about the AUC (OCI-AML-2; OCI-AML-2, area under the dose–response curve) of the same compound?
A: 2.116

Q: What about the IC50 (MV-4–11; Homo sapiens, MV4-11, MV-4–11, 72 h, CTG) of the same compound?
A: 264 nM

Q: What about the “Classification by AUC” value (MV-4–11; MV-4–11) of the same compound?
A: Sensitive (AUC ≤ 2.4, sensitive)

Q: What about the AUC (MV-4–11; MV-4–11, area under the dose–response curve) of the same compound?
A: 1.454

Q: And the “Classification by AUC” value (KASUMI-6; KASUMI-6)?
A: Sensitive (AUC ≤ 2.4, sensitive)

Q: And the IC50 (KASUMI-6; KASUMI-6, 72 h, CTG)?
A: 1480 nM

Q: And the AUC (KASUMI-6; KASUMI-6, area under the dose–response curve)?
A: 2.251

Q: What about the IC50 (OCI-AML-5; Homo sapiens, OCI-AML-5, 72 h, CTG) of the same compound?
A: 370 nM

Q: And the “Classification by AUC” value (OCI-AML-5; OCI-AML-5)?
A: Sensitive (AUC ≤ 2.4, sensitive)

Q: What about the AUC (OCI-AML-5; OCI-AML-5, area under the dose–response curve) of the same compound?
A: 1.636

Q: What about the IC50 (OCI-AML-3; Homo sapiens, OCI-AML-3, 72 h, CTG) of the same compound?
A: 2940 nM

Q: What about the “Classification by AUC” value (OCI-AML-3; OCI-AML-3) of the same compound?
A: Insensitive (AUC ≥ 2.8, insensitive)

Q: What about the AUC (OCI-AML-3; OCI-AML-3, area under the dose–response curve) of the same compound?
A: 2.863

Q: And the IC50 (UT7; Homo sapiens, UT7, 72 h, CTG)?
A: 62400 nM

Q: What about the “Classification by AUC” value (UT7; UT7) of the same compound?
A: Insensitive (AUC ≥ 2.8, insensitive)

Q: And the AUC (UT7; UT7, area under the dose–response curve)?
A: 3.469

Q: And the “Classification by AUC” value (OCI-M1; OCI-M1)?
A: Insensitive (AUC ≥ 2.8, insensitive)

Q: What about the IC50 (OCI-M1; OCI-M1, 72 h, CTG) of the same compound?
A: 19500 nM

Q: And the AUC (OCI-M1; OCI-M1, area under the dose–response curve)?
A: 3.404
